Earlier results, collected in US7959936B2, “Emulsifications-stable pesticidal composition” (Syngenta Crop Protection, Inc., priority 2003, dated 2011).
Like-named read-outs stand apart in the source and are kept apart here.

Key:
Rabbit [1] = system: Rabbit
[2] = 25° C
Rabbit [3] = system: Rabbit; remark: listed apart in the source
Rabbit [4] = settings: no unit printed for this line
Rabbit [5] = system: Rabbit; remark: listed apart in the source

2-(thiazol-4-ine)benzimidazole [Thiabendazole]
Irritability Mucous membrane (Rabbit [1]): Non-irritating | Vapor pressure [2]: Vapor pressure: 4.6 × 10^−4 mPa (25° C) | Acute oral toxicity LD50 (mg/kg) (Mallard duck): 5,620 mg/kg | Solubility, 1,2-dichloroethane (20° C.): 810 µg/mL | Solubility, Acetone (20° C.): 2430 µg/mL | Solubility, Ethyl acetate (20° C.): 1490 µg/mL | Solubility, Methanol (20° C.): 8280 µg/mL | Solubility, Xylene (20° C.): 130 µg/mL | Solubility, n-Hexane (20° C.): <10 µg/mL | Solubility, n-Octanol (20° C.): 3910 µg/mL | Solubility, Water (20° C., pH4): 160 µg/mL | Solubility, Water (20° C., pH7): 30 µg/mL | solubility in short-chain alcohols (such as methyl alcohol): comparatively satisfactory solubility | solubility in water (water): practically insoluble | solubility in typical industrial solvents (xylene and petroleum-based solvents): only slightly soluble | Acute oral toxicity (LD50: mg/kg) (Mouse): 3,600 mg/kg | TLm (96 hrs) (Rainbow trout): 0.5 mg/L | Irritability Skin (Rabbit [3]): Non-irritating | Antigenicity (Guinea pig): None | Acute oral toxicity LD50 (mg/kg) (Quail): <2,250 mg/kg | Acute oral toxicity (LD50: mg/kg) (Rat): 3,100 mg/kg | Acute percutaneous toxicity (Rabbit [4]): <2,000 | Acute oral toxicity (LD50: mg/kg) (Rabbit [5]): 3,800 mg/kg | TLm (96 hrs) (Bluegill): 19 mg/L
